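Protocol summary: plate cells (96-well), add compound at 5 concentrations, incubate 48 h, interpolate endpoints linearly. TGI is the concentration that stops growth completely.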
Tests used:
Assay in all cases: DTP human tumour cell line panel, 48 h
A498 renal = test system: A498 renal
A549 NSCLC = test system: A549 NSCLC
ACHN renal = test system: ACHN renal
CAKI-1 renal = test system: CAKI-1 renal
CCRF-CEM leukemia = test system: CCRF-CEM leukemia
COLO 205 colon = test system: COLO 205 colon
DLD-1 colon = test system: DLD-1 colon
DMS 114 small cell lung = test system: DMS 114 small cell lung
DMS 273 small cell lung = test system: DMS 273 small cell lung
EKVX NSCLC = test system: EKVX NSCLC
HCC-2998 colon = test system: HCC-2998 colon
HCT-116 colon = test system: HCT-116 colon
HCT-15 colon = test system: HCT-15 colon
HL-60(TB) leukemia = test system: HL-60(TB) leukemia
HOP-62 NSCLC = test system: HOP-62 NSCLC
HOP-92 NSCLC = test system: HOP-92 NSCLC
HT29 colon = test system: HT29 colon
IGROV1 ovarian = test system: IGROV1 ovarian
K-562 leukemia = test system: K-562 leukemia
KM12 colon = test system: KM12 colon
KM20L2 colon = test system: KM20L2 colon
LOX IMVI melanoma = test system: LOX IMVI melanoma
LXFL 529 NSCLC = test system: LXFL 529 NSCLC
M14 melanoma = test system: M14 melanoma
M19-MEL melanoma = test system: M19-MEL melanoma
MOLT-4 leukemia = test system: MOLT-4 leukemia
NCI-H226 lung = test system: NCI-H226 lung
NCI-H23 lung = test system: NCI-H23 lung
NCI-H460 lung = test system: NCI-H460 lung
NCI-H522 lung = test system: NCI-H522 lung
OVCAR-4 ovarian = test system: OVCAR-4 ovarian
OVCAR-5 ovarian = test system: OVCAR-5 ovarian
OVCAR-8 ovarian = test system: OVCAR-8 ovarian
RPMI-8226 leukemia = test system: RPMI-8226 leukemia
RXF 393 renal = test system: RXF 393 renal
RXF-631 renal = test system: RXF-631 renal
SF-268 CNS = test system: SF-268 CNS
SF-295 CNS = test system: SF-295 CNS
SF-539 CNS = test system: SF-539 CNS
SK-MEL-2 melanoma = test system: SK-MEL-2 melanoma
SK-MEL-28 melanoma = test system: SK-MEL-28 melanoma
SK-MEL-5 melanoma = test system: SK-MEL-5 melanoma
SK-OV-3 ovarian = test system: SK-OV-3 ovarian
SN12C renal = test system: SN12C renal
SNB-19 CNS = test system: SNB-19 CNS
SNB-75 CNS = test system: SNB-75 CNS
SNB-78 CNS = test system: SNB-78 CNS
SR leukemia = test system: SR leukemia
SW-620 colon = test system: SW-620 colon
TK-10 renal = test system: TK-10 renal
U251 CNS = test system: U251 CNS
UACC-257 melanoma = test system: UACC-257 melanoma
UACC-62 melanoma = test system: UACC-62 melanoma
UO-31 renal = test system: UO-31 renal

Question: For `O=C(Nc1cccc(O)c1)C(=O)C(C(=O)c1ccccc1F)C1OC(=O)c2ccccc21` (centres undefined), which TGI (A498 renal) is on record?
Answer: > 100 µM

Question: And the TGI (A549 NSCLC)?
Answer: > 100 µM

Question: And the TGI (ACHN renal)?
Answer: > 100 µM

Question: And the TGI (CAKI-1 renal)?
Answer: 94 µM

Question: And the TGI (CCRF-CEM leukemia)?
Answer: 68.5 µM

Question: And the TGI (COLO 205 colon)?
Answer: 48.3 µM

Question: What about the TGI (DLD-1 colon) of the same molecule?
Answer: > 100 µM

Question: What about the TGI (DMS 114 small cell lung) of the same molecule?
Answer: 40.7 µM

Question: What about the TGI (DMS 273 small cell lung) of the same molecule?
Answer: 98.1 µM

Question: And the TGI (EKVX NSCLC)?
Answer: > 100 µM

Question: And the TGI (HCC-2998 colon)?
Answer: 39.4 µM

Question: What about the TGI (HCT-116 colon) of the same molecule?
Answer: 33.9 µM

Question: What about the TGI (HCT-15 colon) of the same molecule?
Answer: 49.2 µM

Question: What about the TGI (HL-60(TB) leukemia) of the same molecule?
Answer: 87.7 µM

Question: And the TGI (HOP-62 NSCLC)?
Answer: > 100 µM

Question: And the TGI (HOP-92 NSCLC)?
Answer: > 100 µM

Question: And the TGI (HT29 colon)?
Answer: > 100 µM

Question: And the TGI (IGROV1 ovarian)?
Answer: > 100 µM

Question: And the TGI (K-562 leukemia)?
Answer: > 100 µM

Question: What about the TGI (KM12 colon) of the same molecule?
Answer: 71 µM

Question: And the TGI (KM20L2 colon)?
Answer: 58.9 µM

Question: What about the TGI (LOX IMVI melanoma) of the same molecule?
Answer: 47.1 µM

Question: And the TGI (LXFL 529 NSCLC)?
Answer: 88.8 µM

Question: And the TGI (M14 melanoma)?
Answer: > 100 µM

Question: And the TGI (M19-MEL melanoma)?
Answer: 54.4 µM

Question: And the TGI (MOLT-4 leukemia)?
Answer: > 100 µM

Question: What about the TGI (NCI-H226 lung) of the same molecule?
Answer: 49.1 µM

Question: And the TGI (NCI-H23 lung)?
Answer: 88.2 µM

Question: What about the TGI (NCI-H460 lung) of the same molecule?
Answer: 94.9 µM

Question: And the TGI (NCI-H522 lung)?
Answer: 63.9 µM

Question: What about the TGI (OVCAR-4 ovarian) of the same molecule?
Answer: > 100 µM

Question: What about the TGI (OVCAR-5 ovarian) of the same molecule?
Answer: > 100 µM

Question: What about the TGI (OVCAR-8 ovarian) of the same molecule?
Answer: 30.5 µM

Question: And the TGI (RPMI-8226 leukemia)?
Answer: 87.8 µM

Question: And the TGI (RXF 393 renal)?
Answer: 39.8 µM

Question: What about the TGI (RXF-631 renal) of the same molecule?
Answer: 93.5 µM

Question: What about the TGI (SF-268 CNS) of the same molecule?
Answer: 74.7 µM

Question: What about the TGI (SF-295 CNS) of the same molecule?
Answer: > 100 µM

Question: What about the TGI (SF-539 CNS) of the same molecule?
Answer: 40.2 µM

Question: And the TGI (SK-MEL-2 melanoma)?
Answer: 62.2 µM

Question: What about the TGI (SK-MEL-28 melanoma) of the same molecule?
Answer: 92.9 µM

Question: What about the TGI (SK-MEL-5 melanoma) of the same molecule?
Answer: > 100 µM

Question: And the TGI (SK-OV-3 ovarian)?
Answer: > 100 µM

Question: What about the TGI (SN12C renal) of the same molecule?
Answer: > 100 µM

Question: And the TGI (SNB-19 CNS)?
Answer: 68 µM

Question: And the TGI (SNB-75 CNS)?
Answer: 53.1 µM

Question: What about the TGI (SNB-78 CNS) of the same molecule?
Answer: 92.9 µM

Question: What about the TGI (SR leukemia) of the same molecule?
Answer: 83.7 µM

Question: And the TGI (SW-620 colon)?
Answer: > 100 µM

Question: And the TGI (TK-10 renal)?
Answer: > 100 µM

Question: What about the TGI (U251 CNS) of the same molecule?
Answer: 26.9 µM

Question: And the TGI (UACC-257 melanoma)?
Answer: > 100 µM

Question: What about the TGI (UACC-62 melanoma) of the same molecule?
Answer: 37.8 µM

Question: What about the TGI (UO-31 renal) of the same molecule?
Answer: 96.8 µM

From PubChem BioAssay (NCI)
